Laboratory results taken from patent US20240335428A1, “PATEAMINE A DERIVATIVE FOR TREATING PANCREATIC CANCER” (Baylor University, priority 2023, published 2024).

Assays:
Mia-Paca-2 cells = experiment: Mouse xenograph model (subcutaneous Mia-Paca-2 tumors); format: in vivo, female athymic nude mice
Excerpt: In this example, the effectiveness of DMPatA in reducing tumor size in a mouse xenograph model is described.
Intraperitoneal therapy for PDAC. One of the most difficult complications of pancreatic cancer is the development of peritoneal carcinomatosis, which may occur as the presenting manifestation of PDAC, much as occurs with ovarian cancer, or may appear late in the course of the disease. In either case, the prognosis for peritoneal carcinomatosis and cytology-positive ascites is grim, at times portending survival of only a few weeks. […] The second major problem is that recurrent ascites requires frequent large volume paracentesis—which depletes the patient of protein and nutrients. […] Des-methyl pateamine A (DMPatA, MZ735) can be used as a novel intraperitoneal therapy able to directly treat intraperitoneal carcinomatosis. In certain embodiments, the safe intraperitoneal dose is 0.075-0.1 mg/kg, as established in a mouse xenograpgh model.
Fifteen female athymic nude mice were implanted with 5×10^6 Mia-Paca-2 cells, injected subcutaneously into the right flank with 50% Matrigel. Once tumors reached 100-200 mm^3 in volume, mice were randomized and enrolled into the study with three treatment groups including vehicle, MZ735 0.075, MZ735 0.1 mg/kg.
Mice were dosed once every four days interperitoneally (IP) for 28 days. Weights were taken twice per week to ensure overall health. All formulations were prepared on a day prior to, or on the day of dosing, using a serial dilution method and stored at 4° C. Formulations for this study were made using a vehicle of 10% Ethanol, 10% Cremophor EL, 4% glucose, and 76% PBS.
Body weights and tumor measurements were recorded twice weekly per OPTIC core-Tumor Growth Measurement at Columbia University.
At the end of the study mice were euthanized via CO2 asphyxiation, per IACUC approved Euthanasia protocol at Columbia University.

[1] = tested on: PDAC cell lines: MIA PaCa-2; PANC-1; Capan-1; AsPC-1; experiment: Cell proliferation / viability assay (CellTiter-Glo); format: cell-based; details: for cell proliferation (viability): PDAC cells, 48 h and 72 h, Cell-Titer Glo
Experimental: FIGS. 2A-2D are viability curves of DMDAPatA and DMPatA in four representative PDAC cell lines: MIA PaCa-2; Panc-1; Capan-1; and AsPC-1. PDAC cell lines were treated with DMPatA and DMDAPatA at the indicated concentrations for 48 h and 72 h. Cell viability was determined using Cell-Titer Glo (Promega). Viability (%, Y-axis) was plotted against drug concentration (log nM, X-axis). In the figures, MZ is DMPatA and PatA is DMDAPatA.
See Example 2. FIGS. 2A-2D are viability curves of DMDAPatA and DMPatA in four representative PDAC cell lines: MIA PaCa-2; PANC-1; Capan-1; and AsPC-1.
In this example, the effectiveness of DMPatA and DMDAPatA in reducing the proliferation of PDAC cancer cell lines is described.
Cell viability was measured using CellTiter-Glo® reagent (Promega, #G7570), according to the manufacturer's instructions. Briefly, cells were seeded at a density of […] in white 96-well plates and allowed to grow overnight. Cells were then treated with/without the combination and single agents as described earlier and incubated 37° C. and 5% CO2 for appropriate time points. After incubation assay reagent was added to the cells and luminescent signal values were quantified using microplate reader (PHERAstar® FS, BMG LABTECH, Ortenberg, Germany).

Cyclin D1 = experiment: Western blot of oncoproteins in PDAC cell lines; format: cell-based; details: PDAC cell lines MIA PaCa-2 and AsPC-1, western blot
Excerpt: (§1) FIGS. 3A and 3B are images of western blots showing the effect of DMDAPatA and DMPatA in PDAC cell lines (MiaPaca-2 and AsPc-1). In the figures, MZ735 is DMPatA and PatA is DMDAPatA.
(§2) FIGS. 5A and 5B are images of western blots showing the effect of DMPatA and DMDAPatA on oncoproteins c-MYC and Cyclin D1 in PDAC cell lines: MIA PaCa-2; PANC-1; Capan-1; and AsPC-1. In the figures, MZ is DMPatA and PatA is DMDAPatA.
(§3) eIF4A inhibitors selectively repress the expression levels of key proteins in PDAC cell lines. FIGS. 3A and 3B are images of western blots showing the effect of DMDAPatA and DMPatA in PDAC cell lines (MIA PaCa-2 and AsPC-1). […] These proteins are commonly used as controls in western blot analysis and are so-called because they are typically not susceptible to agents that alter gene or protein expression.
(§4) FIGS. 5A and 5B are images of western blots showing the effect of DMPatA and DMDAPatA on oncoproteins c-MYC and Cyclin D1 in PDAC cell lines: MIA PaCa-2; PANC-1; Capan-1; and AsPC-1.

c-MYC = experiment: Western blot of oncoproteins in PDAC cell lines; format: cell-based; details: PDAC cell lines MIA PaCa-2 and AsPC-1, western blot
Excerpt: as §1, §2, §3, §4

GAPDH and beta-actin = experiment: Western blot of housekeeping proteins; format: cell-based; details: PDAC cell lines
Excerpt: as §1, §3

hyaluronic acid = experiment: Hyaluronic acid staining (biotinylated-HABP, confocal imaging, CTCF); format: cell-based; details: MIA PaCa-2 cells, 5 nM DMPatA, 24 h versus untreated control, CTCF (P<0.05)
Experimental: (§5) CD44 is the cell surface receptor for hyaluronic acid. Dense stroma with high levels of hyaluronic acid and extracellular matrix are among factors that are said to contribute to drug resistance in PDAC due to reduced permeability of anticancer therapies. Reduction of CD44 could facilitate the activity of chemotherapy or other combination therapy. MIA PaCa-2 cells were treated with 5 nM of DMPatA for 24 h versus untreated control. Cells were stained for HA using biotinylated-HABP and anti-CD44. FIG. 6A compares the analysis of the corrected total cell fluorescence (CTCF) based on data extracted from confocal imaging (P<0.05) and FIG. 6B compares western blot showing the effect of DMPatA and DMDAPatA on stromal proteins HAS3 and CD44. In the figures, MZ and MZ735 are DMPatA and PatA is DMDAPatA.
(§6) MIA PaCa-2 cells were treated with 5 nM of DMPatA for 24 h versus untreated control. Cells were stained for HA using biotinylated-HABP and anti-CD44. FIG. 6A compares the analysis of the corrected total cell fluorescence (CTCF) based on data extracted from confocal imaging (P<0.05) and FIG. 6B compares western blot showing the effect of DMPatA and DMDAPatA on stromal proteins HAS3 and CD44.

CD44 = CD44 level (anti-CD44 confocal imaging, western blot); format: cell-based; details: MIA PaCa-2 cells, 5 nM DMPatA, 24 h, CTCF (P<0.05)
Experimental: as §5, §6

[2] = Protein binding in human plasma; format: in vitro ADME
[3] = compared with parent natural product PatA; cited from earlier work

Molecule	volume of subcutaneously implanted tumors (Mia-Paca-2 cells; 0.075-0.1 mg/kg IP once every four days for 28 days, Mia-Paca-2 xenograft)	absorption via the peritoneum (Mia-Paca-2 cells; intraperitoneal dose 0.075-0.1 mg/kg, mouse)	safe intraperitoneal dose (Mia-Paca-2 cells; mouse xenograph model, intraperitoneal)	cell proliferation (viability) [1]	potency relative to DMDAPatA ([1]; viability curves in four PDAC cell lines)	protein level of Cyclin D1 (Cyclin D1)	protein level of c-MYC (c-MYC)	expression of housekeeping proteins GAPDH and beta-actin (GAPDH and beta-actin)	levels of hyaluronic acid (hyaluronic acid)	levels of CD44 (CD44)	protein binding in human plasma [2]	stability relative to PatA [3]
des-methyl pateamine A [DMPatA]	reduce the volume of subcutaneously implanted tumors	can be absorbed via the peritoneum	0.075 to 0.1 mg/kg	inhibit cell proliferation	greater potency relative to DMDAPatA	inhibiting the protein level	inhibiting the protein level	stably expressed	reduce the levels	reduce the levels		
CC(/C=C/C(C)=C/[C@@H]1Cc2nc(cs2)CCCCC(=O)O[C@@H](C)C/C(C)=C/C=C\C(=O)O1)=C\CN(C)C [DMDAPatA, des-methyl des-amino pateamine A]				inhibit cell proliferation		inhibiting the protein level	inhibiting the protein level		reduce the levels	reduce the levels	highly protein bound	more stable
